Columns and labels:
[1] = tested on: DNBS induced colitis in Wistar rats; test: DNBS induced colitis model in Wistar rats; type: in vivo, rat; design: Degree of adhesion (score) / Degree of intestinal infarction (score) / Severity of ulcer (score) / Degree of intestinal wall thickening (score) / Macroscopic colon score: scale not given here; settings: oral once a day Day 0 to Day 6, compounds 10 mg/kg, osalazine sodium 300 mg/kg; for Degree of adhesion (score) / Degree of intestinal infarction (score) / Degree of intestinal wall thickening (score) / Severity of ulcer (score): mean score per Table 4; for Ulcer length / Ulcer width: mean
Description: The therapeutic effect of compounds prepared in some examples of the present invention on 2,4-dinitrobenzenesulfonic acid (DNBS) induced ulcerative colitis in Wistar rats (corresponding to Crohn's disease) was investigated.
• Animal species and strains: Wistar rats • Administration record: No administration history • Gender and weight: Male, about 150 g • Breeding party/supplier: Shanghai SLAC Laboratory Animal Co., Ltd • Adaptation period: 5 days • Room: Regular Area Rooms • Indoor temperature: 20-26° C. • Indoor relative humidity: 40-70% • Lighting: Fluorescent lighting, 12-hour illumination (08:00-20:00) and 12-hour no illumination • Animal feeding: 2-4 rats per cage (same administration group) • Food: Unlimited access to feed (disinfected by irradiation, Jiangsu Xietong Pharmaceutical Bio-engineering Co., Ltd., China) • Water: Unlimited access to drinking water (treated with reverse osmosis and high-pressure sterilization)
A total of 80 Wistar rats were purchased from Shanghai SLAC Laboratory Animal Co., Ltd, of which 10 were used as backup animals to select animals with suitable weight range included in the groups, in order to control the fluctuation of disease severity caused by weight fluctuations.
BioBook software was used to screen 70 animals for random grouping based on animal weight to ensure that the weight values of each group of animals were similar to reduce bias.
3.1 DNBS powder was dissolved in 30% ethanol with a final concentration of 60 mg/mL.
3.2 Induction of colorectal inflammation: Before the experiment, rats were fasted for 40 hours and subcutaneously injected with 5% glucose saline during the fasting period. On the day 0 of the experiment, fasting rats were anesthetized by intraperitoneal injection of Zoletil and 5 mg/kg Xylazine. G2 group-G7 group, a hose was extended from the anus to the left curvature of the colorectum, and colorectal inflammation in rats was induced with DNBS enema. The normal control group (G1) was treated with 30% ethanol enema using the same method.
3.3. Dosage regimen: After DNBS induction in G1 and G2 groups of animals, solvent was administered. After DNBS induction in G3 group, 300 mg/kg of oxalazine sodium was administered. After DNBS induction in G4 to G7 groups, 10 mg/kg of the compounds of the present invention were administered respectively. Please refer to Table 3 for the administration time, specific administration dosage, and administration route. Starting from day 0 of modeling, the drugs were administered continuously for 7 days, and the animals were euthanized on day 6.
3.4 Testing indicators: After the experiment, all animals were euthanized by inhaling excessive CO2 and dislocation of cervical vertebra. After the abdominal cavity was cut open, the colorectum was taken out and the length of it was immediately measured. Then the colorectum was longitudinally cut open and rinsed clean. The weight of the colorectum and the area of the ulcer were recorded and the whole was photographed. At the same time, the damage to the rat colorectum was evaluated macroscopically according to Table 4.
The health status of animals and their comprehensive response to surgery and medication were observed every day.
The experimental data was calculated as mean±standard error. Statistical analysis was performed using Graphpad Prism, SPSS, or Sigmaplot software. The specific data is presented in the form of charts. P<0.05 is considered to have statistical differences.

[2] = target: T1, chemokine receptor CCR9 (Homo sapiens, UniProt P51686); test: CCR9 antagonistic activity, calcium flow (Fluo-4, FlexStation), CCL25 agonist; type: cell-based; settings: antagonistic mode, CCL25 150 nM; for inhibition at 100 µM: read-out: Inhibition rate (%) (100 μM)
T1 construct: expressed in transfected cells
T1 sequence (P51686 1-369): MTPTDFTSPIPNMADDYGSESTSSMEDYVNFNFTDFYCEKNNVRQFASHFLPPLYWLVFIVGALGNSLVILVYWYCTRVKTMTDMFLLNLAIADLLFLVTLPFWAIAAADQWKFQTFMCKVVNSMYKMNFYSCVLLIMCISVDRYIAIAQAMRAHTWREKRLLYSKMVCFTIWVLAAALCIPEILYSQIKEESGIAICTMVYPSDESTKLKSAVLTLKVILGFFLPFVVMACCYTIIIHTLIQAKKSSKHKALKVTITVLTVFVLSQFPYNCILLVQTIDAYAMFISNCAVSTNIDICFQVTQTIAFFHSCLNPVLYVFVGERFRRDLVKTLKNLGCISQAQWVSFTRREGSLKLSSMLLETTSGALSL
Description: 2.1 Main reagents: DMEM culture medium (GIBCO); dimethyl sulfoxide (Sigma); FLUO-4, AM (Invitrogen) 2.2 Main instrument: Flexstation-3 (Molecular Devices) The test concentration gradient of the compound and replicates were set according to the requirement of testing ICSO. All test substances with 8 concentrations were set, with 3 replicates for each concentration. By establishing a cell line that cotransformed the receptor and G16, the receptor being activated can induce the activation of Gα16 protein, thereby activating phospholipase C (PLC) to produce IP3 and DAG. IP3 can bind to the IP3 receptor on the intracellular endoplasmic reticulum and mitochondria, leading to the release of intracellular calcium. Therefore, measuring changes in intracellular calcium can serve as a method for detecting the activation status of target receptor. Fluo-4/AM is a calcium fluorescent probe indicator used to measure calcium ion, as a non-polar lipophilic compound, under the action of cell lipase after entering cells, the AM group dissociates and releases Fluo-4; since Fluo-4 is a polar molecule, it is not easy to pass through lipid bilayers, allowing it to remain in the cell for a long time. Ultimately, the level of G protein activation can be reflected by measuring the excited fluorescence intensity. […] Cells stably expressing the target receptor/Ga16 were planted on a 96 well plate and cultured overnight. 2. The culture solution was removed from the well planted cells, then 40 μL/well of freshly prepared dye was added. The mixture was incubated at a constant temperature in a 37° C. incubator for 40 minutes. 3. The drug to be tested was diluted with calcium buffer and mixed well. 4. The dye was absorbed and discarded. After washed once with freshly prepared calcium buffer, 50 μL of calcium buffer that dissolved the drug to be tested was added for replacement. 5. The FlexStation II instrument was used for detection. Starting from the 15th second, […] dissolved with known agonist was automatically added by the instrument, and finally the fluorescence value at 525 nm was readed. The following formula was used to calculate the cell response rate (% Response) for each sample under each concentration. […] IC50 value was calculated using GraphPad Prism.

Row | inhibition at 100 µM [2] [%] | IC50 [2] [µM] | Structure (SMILES) | Degree of adhesion (score) [1] | Degree of intestinal infarction (score) [1] | Degree of intestinal wall thickening (score) [1] | Severity of ulcer (score) [1] | Ulcer length [1] [cm] | Ulcer width [1] [cm]
1 | 8 | > 100 | NCc1ccc(NS(=O)(=O)c2ccsc2)c(-c2ccco2)c1 [ID-5] | 0.00 | 0.00 | 0.10 | 0.70 | 0.34 | 0.12
2 | 3 | > 100 | CNCc1ccc(NS(=O)(=O)c2ccsc2)c(-c2ccco2)c1 [IA-30] | 0.00 | 0.00 | 0.13 | 0.80 | 0.33 | 0.19
3 | 3 | > 100 | CNCc1ccc(-c2nccs2)c(NS(=O)(=O)c2ccccc2)c1 [IA-51, N-(5-((methylamino)methyl)-2-(thiazol-2-yl)phenyl)benzenesulfonamide] | 0.07 | 0.00 | 0.27 | 0.60 | 0.31 | 0.20
4 | 8 | > 100 | CNCc1ccc(-c2cc[nH]n2)c(NS(=O)(=O)c2ccccc2)c1 [IA-55, N-(5-((methylamino)methyl)-2-(1H-pyrazol-3-yl)phenyl)benzenesulfonamide] | 0.10 | 0.10 | 0.30 | 1.20 | 0.60 | 0.40
